In the assay the target is T1, histamine H4 receptor (Homo sapiens, UniProt Q9H3N8).
T1 construct: expressed in transfected cells; host or cells: HEK293SFM cells (membrane preparation)
T1 sequence (Q9H3N8 whole entry): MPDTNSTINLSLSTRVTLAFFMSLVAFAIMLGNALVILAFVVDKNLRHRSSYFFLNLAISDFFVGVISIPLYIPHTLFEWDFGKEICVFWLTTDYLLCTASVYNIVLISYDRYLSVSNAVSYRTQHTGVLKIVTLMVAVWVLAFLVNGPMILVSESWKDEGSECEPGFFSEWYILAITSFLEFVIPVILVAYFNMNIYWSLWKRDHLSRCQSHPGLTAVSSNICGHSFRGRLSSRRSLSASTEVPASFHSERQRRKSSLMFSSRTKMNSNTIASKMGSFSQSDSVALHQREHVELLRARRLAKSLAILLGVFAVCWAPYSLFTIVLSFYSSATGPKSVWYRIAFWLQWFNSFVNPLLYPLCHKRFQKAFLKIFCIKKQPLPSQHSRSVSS
Briefly: H4 Membrane Binding Assay (3H-Histamine displacement). Conditions: membranes of recombinant HEK293SFM cells, 10 nM 3H-Histamine, 1.5 hr at room temperature. In outline:
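Radioligand is [3H]-histamine; 1000× unlabeled ligand sets nonspecific binding. Receptor source: membrane pellets from HEK293SFM cells carrying human H4 or other histamine subtypes (human H1–H3, mouse H4), in 50 mM Tris-HCl pH 7.5. Filtration through PEI-treated GF/B filters, then scintillation counting.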
On to `CN1CCN(c2cc(-c3ccc4c(c3)CN(C(=O)NC3CCCc5ccccc53)CC4)nc(N)n2)CC1` (centres unmarked) [Example 83, 7-[2-Amino-6-(4-methylpiperazin-1-yl)pyrimidin-4-yl]-N-(1,2,3,4-tetrahydronaphthalen-1-yl)-3,4-dihydroisoquinoline-2(1H)-carboxamide], for which the IC50 amounted to 38 nM. For `COc1cc(COc2cccc(CNC(=O)c3ccc4c(N5CCN(C)CC5)nc(N)nc4c3)c2)cc(OC)c1` [Example 194, 2-Amino-N-{3-[(3,5-dimethoxybenzyl)oxy]benzyl}-4-(4-methylpiperazin-1-yl)quinazoline-7-carboxamide], the IC50 stood at 8.7 nM. The same measure for `CCOC(=O)c1cccnc1Oc1cccc(CNC(=O)c2ccc3c(N4CCN(C)CC4)nc(N)nc3c2)c1` [Example 184, Ethyl 2-{3-[({[2-amino-4-(4-methylpiperazin-1-yl)quinazolin-7-yl]carbonyl}amino)methyl]phenoxy}nicotinate]: 43 nM; for `CN1CCN(c2nc(N)nc3cc(C(=O)NC4CCCc5ccc(OCc6ccc(C#N)cc6)cc54)ccc23)CC1` (centres unmarked) [Example 205, 2-Amino-N-(7-(4-cyanobenzyloxy)-1,2,3,4-tetrahydronaphthalen-1-yl)-4-(4-methylpiperazin-1-yl)quinazoline-7-carboxamide]: 11 nM; for `CN1CCN(c2nc(N)nc3cc(C(=O)NC(Cc4ccc(-c5cccc(F)c5F)nc4)C(=O)N(C)C)ccc23)CC1` (centres unmarked) [Example 163, 2-Amino-N-[1-{[6-(2,3-difluorophenyl)pyridin-3-yl]methyl}-2-(dimethylamino)-2-oxoethyl]-4-(4-methylpiperazin-1-yl)quinazoline-7-carboxamide]: 66 nM. The same measure for `CN1CCN(c2cc(-c3ccc4c(c3)CN(C(=O)NC3CCC(C(F)(F)F)CC3)CC4)nc(N)n2)CC1` (centres unmarked) [Example 64, 7-[2-Amino-6-(4-methylpiperazin-1-yl)pyrimidin-4-yl]-N-[4-(trifluoromethyl)cyclohexyl]-3,4-dihydroisoquinoline-2(1H)-carboxamide]: 43 nM; for `CN1CCN(c2cc(-c3ccc4c(c3)CN(C(=O)OC3CCN(C(=O)C5CCCC5)CC3)CC4)nc(N)n2)CC1` [Example 67, 1-(Cyclopentylcarbonyl)piperidin-4-yl 7-[2-amino-6-(4-methylpiperazin-1-yl)pyrimidin-4-yl]-3,4-dihydroisoquinoline-2(1H)-carboxylate]: 110 nM. Consider `COC(=O)c1ccc(Oc2cccc(CNC(=O)c3ccc4c(N5CCN(C)CC5)nc(N)nc4c3)c2)cc1` [Example 179, Methyl 4-{3-[({[2-amino-4-(4-methylpiperazin-1-yl)quinazolin-7-yl]carbonyl}amino)methyl]phenoxy}benzoate], for which the IC50 stood at 46 nM. For the molecule `CN1CCN(c2nc(N)nc3cc(C(=O)NC(Cc4cccc(Oc5ccc(Cl)cc5C#N)c4)C(=O)N(C)C)ccc23)CC1` (centres unmarked) [Example 172, 2-Amino-N-[1-[3-(4-chloro-2-cyanophenoxy)benzyl]-2-(dimethylamino)-2-oxoethyl]-4-(4-methylpiperazin-1-yl)quinazoline-7-carboxamide], the IC50 came to 26 nM.

On to `CN1CCN(c2nc(N)nc3cc(C(=O)N[C@@H](Cc4ccc(-c5cccc(Cl)c5Cl)cc4)C(=O)N(C)C)ccc23)CC1` [Example 162, 2-Amino-N-[(1S)-1-[(2′,3′-dichlorobiphenyl-4-yl)methyl]-2-(dimethylamino)-2-oxoethyl]-4-(4-methylpiperazin-1-yl)quinazoline-7-carboxamide], for which the IC50 worked out at 10 nM. Next, `CN1CCN(c2cc(-c3ccc4c(c3)CN(C(=O)Nc3cccc(Cl)c3F)CC4)nc(N)n2)CC1` [Example 40, 7-[2-Amino-6-(4-methylpiperazin-1-yl)pyrimidin-4-yl]-N-(3-chloro-2-fluorophenyl)-3,4-dihydroisoquinoline-2(1H)-carboxamide]: 16 nM; `CCOC(=O)c1cc(C)nc(Oc2cccc(CNC(=O)c3ccc4c(N5CCN(C)CC5)nc(N)nc4c3)c2)c1C#N` [Example 186, Ethyl 2-{3-[({[2-amino-4-(4-methylpiperazin-1-yl)quinazolin-7-yl]carbonyl}amino)methyl]phenoxy}-3-cyano-6-methylisonicotinate]: 7.9 nM; `CC(C)c1ccc(CC(NC(=O)c2ccc3c(N4CCN(C)CC4)nc(N)nc3c2)C(=O)N(C)C)cc1` (centres unmarked) [Example 149, 2-Amino-N-[2-(dimethylamino)-1-(4-isopropylbenzyl)-2-oxoethyl]-4-(4-methylpiperazin-1-yl)quinazoline-7-carboxamide]: 40 nM. For the molecule `CN1CCN(c2nc(N)nc3cc(C(=O)NCc4cccc(Oc5nccc6ccccc56)c4)ccc23)CC1` [Example 181, 2-Amino-N-[3-(isoquinolin-1-yloxy)benzyl]-4-(4-methylpiperazin-1-yl)quinazoline-7-carboxamide], the IC50 stood at 16 nM.

Consider `CN1CCN(c2nc(N)nc3cc(C(=O)NC(Cc4nc5ccccc5s4)C(=O)N(C)C)ccc23)CC1` (centres unmarked) [Example 144, 2-Amino-N-[1-(1,3-benzothiazol-2-ylmethyl)-2-(dimethylamino)-2-oxoethyl]-4-(4-methylpiperazin-1-yl)quinazoline-7-carboxamide], for which the IC50 came out at 190 nM. Turning to `COc1ccc(-c2ccc(CC(NC(=O)c3ccc4c(N5CCN(C)CC5)nc(N)nc4c3)C(=O)N(C)C)cn2)cc1` (centres unmarked) [Example 164, 2-Amino-N-(-2-(dimethylamino)-1-{[6-(4-methoxyphenyl)pyridin-3-yl]methyl}-2-oxoethyl)-4-(4-methylpiperazin-1-yl)quinazoline-7-carboxamide], the IC50 stood at 57 nM.

In the case of `COc1cccc(-c2ccc(C[C@H](NC(=O)c3ccc4c(N5CCN(C)CC5)nc(N)nc4c3)C(=O)N(C)C)cc2)n1` [Example 153, 2-Amino-N-{(1S)-2-(dimethylamino)-1-[4-(6-methoxypyridin-2-yl)benzyl]-2-oxoethyl}-4-(4-methylpiperazin-1-yl)quinazoline-7-carboxamide], the IC50 is 19 nM.

As to `CN1CCN(c2cc(-c3ccc4c(c3)CN(C(=O)Nc3ccc(C#N)cn3)CC4)nc(N)n2)CC1` [Example 43, 7-[2-Amino-6-(4-methylpiperazin-1-yl)pyrimidin-4-yl]-N-(5-cyanopyridin-2-yl)-3,4-dihydroisoquinoline-2(1H)-carboxamide], the IC50 is 58 nM. Next, `CCS(=O)(=O)N1CCC(CC(=O)N2CCc3ccc(-c4cc(N5CCN(C)CC5)nc(N)n4)cc3C2)CC1` [Example 74, 4-(2-{[1-(Ethylsulfonyl)piperidin-4-yl]acetyl}-1,2,3,4-tetrahydroisoquinolin-7-yl)-6-(4-methylpiperazin-1-yl)pyrimidin-2-amine]: 123 nM; `CN1CCN(c2nc(N)nc3cc(C(=O)NCc4ccc(Cl)c(Cl)c4)ccc23)CC1` [Example 131, 2-Amino-N-(3,4-dichlorobenzyl)-4-(4-methylpiperazin-1-yl)quinazoline-7-carboxamide]: 17 nM.

For `CN1CCN(c2nc(N)nc3cc(C(=O)NC(Cc4ccc5c(c4)OC(F)(F)O5)C(=O)N(C)C)ccc23)CC1` (single isomer, unassigned) [Example 145A], the IC50 was 519 nM. The same measure for `COC(=O)c1cccc(-c2ccc(C[C@H](NC(=O)c3ccc4c(N5CCN(C)CC5)nc(N)nc4c3)C(=O)N(C)C)cc2)c1` [Example 158, Methyl 4′-[(2S)-2-({[2-amino-4-(4-methylpiperazin-1-yl)quinazolin-7-yl]carbonyl}amino)-3-(dimethylamino)-3-oxopropyl]biphenyl-3-carboxylate]: 6.6 nM; for `CN1CCN(c2nc(N)nc3cc(C(=O)NCc4cccc(OCc5cccc(C#N)c5)c4)ccc23)CC1` [Example 192, 2-amino-N-(3-(3-cyanobenzyloxy)benzyl)-4-(4-methylpiperazin-1-yl)quinazoline-7-carboxamide]: 6.3 nM; for `CC(C)OC(=O)N1CCC(OC(=O)N2CCc3ccc(-c4cc(N5CCN(C)CC5)nc(N)n4)cc3C2)CC1` [Example 68, 1-(Isopropoxycarbonyl)piperidin-4-yl 7-[2-amino-6-(4-methylpiperazin-1-yl)pyrimidin-4-yl]-3,4-dihydroisoquinoline-2(1H)-carboxylate]: 38 nM. As to `CN1CCN(c2nc(N)nc3cc(C(=O)NC(C#N)c4ccccc4)ccc23)CC1` (centres unmarked) [Example 129, 2-Amino-N-[cyano(phenyl)methyl]-4-(4-methylpiperazin-1-yl)quinazoline-7-carboxamide], the 50% inhibitory concentration (IC50) stood at 156 nM. `CN1CCN(c2cc(-c3ccc4c(c3)CN(C(=O)Nc3ccc(-n5cccn5)cc3)CC4)nc(N)n2)CC1` [Example 93, 7-[2-Amino-6-(4-methylpiperazin-1-yl)pyrimidin-4-yl]-N-[4-(1H-pyrazol-1-yl)phenyl]-3,4-dihydroisoquinoline-2(1H)-carboxamide]: the IC50 stood at 43 nM.

In the case of `Cc1cc2c(cc1-c1cc(N3CCN(C)CC3)nc(N)n1)CN(C(=O)Nc1ccc(Cl)cc1)CC2` [Example 77, 7-[2-Amino-6-(4-methylpiperazin-1-yl)pyrimidin-4-yl]-N-(4-chlorophenyl)-6-methyl-3,4-dihydroisoquinoline-2(1H)-carboxamide], the concentration for half-maximal inhibition (IC50) stood at 95 nM. Turning to `CN1CCN(c2nc(N)nc3cc(C(=O)N[C@@H](Cc4ccc(-c5cncc(C#N)c5)cc4)C(=O)N(C)C)ccc23)CC1` [Example 156, 2-Amino-N-[(1S)-1-[4-(5-cyanopyridin-3-yl)benzyl]-2-(dimethylamino)-2-oxoethyl]-4-(4-methylpiperazin-1-yl)quinazoline-7-carboxamide], the IC50 amounted to 41 nM. The same measure for `CN1CCN(c2nc(N)nc3cc(C(=O)NC(Cc4cccc(Oc5cc(Cl)cc(Cl)c5)c4)C(=O)N(C)C)ccc23)CC1` (centres unmarked) [Example 167, 2-Amino-N-[1-[3-(3,5-dichlorophenoxy)benzyl]-2-(dimethylamino)-2-oxoethyl]-4-(4-methylpiperazin-1-yl)quinazoline-7-carboxamide]: 15 nM.

For orientation: IC50 means the concentration needed to halve the response being measured.
